Assay results published in patent US11021413B2, “Benzylpropargylether as nitrification inhibitors” (BASF SE, priority 2014, dated 2021).

test system: nitrification; assay: Inhibition of nitrification in soil (48 well plate, ammonium sulfate, colour reaction read at 540 nm); conditions: dose of 5±1 ppm; field soil; up to 72 hrs at room temperature; compared to control (DMSO only)
Method: The compounds of the invention have been tested as follows in terms of the inhibition of nitrification:
Soil was sampled fresh from a field (e.g. Limburgerhof), dried and sieved through a 500 μm sieve. Approximately 200 mg of soil were placed into each well of a 48 well plate. […] 6 μmol ammonium sulfate was added per well as well as 4.8 mg NaClO3.
Subsequently, the samples were incubated at room temperature for up to 72 hrs. After the incubation period 64 mg KCl were added and mixed. 25 μl of the supernatant were placed into a fresh plate and 260 μl of a color reaction solution (from Merck Nr 1.11799.0100) were added. Measurements were taken with a Tecan plate Reader at 540 nm wavelength.
Inhibition is calculated as x=% activity compared to control, and converted to 100-x to give the value of inhibition, rather than activity.

First: C#CCOCc1ccc(COCC#C)cc1 [Compound 1-23]
Second: C#CCOCc1ccc(F)cc1 [Compound 1-25]
The “IN (best inhibition value obtained for a compound)” value of the first is lower: 18% for the first, 87% for the second.

First: C#CCOCc1ccc(OC(C)C)cc1 [Compound 1-24]
Second: C#CCOCc1ccc(OCC)cc1 [Compound 1-26]
The “IN (best inhibition value obtained for a compound)” value of the first is lower: 18% for the first, 69% for the second.

Compared with C#CCOCc1ccc(OCCC)cc1 [Compound 1-27], C#CCOCc1ccc(C)cc1 [Compound 1-29] is lower in “IN (best inhibition value obtained for a compound)” value: 59% for the first, 37% for the second.

Going from C#CCOCc1ccccc1 [Compound 1-28] to C#CCOCc1ccc(I)cc1 [Compound 1-32], the “IN (best inhibition value obtained for a compound)” value falls from 88% to 53%.

Going from C#CCOCc1ccc(C#N)cc1 [Compound 1-30] to C#CCOCc1ccc(C(=O)O)cc1 [Compound 1-31], the “IN (best inhibition value obtained for a compound)” value falls from 25% to 18%.

For C#CCOCc1ccc(C(=O)N(C)C)cc1 [Compound 1-33], the “IN (best inhibition value obtained for a compound)” value was 24%.

same assay, conditions: dose of 10 ppm; field soil; up to 72 hrs at room temperature; compared to control (DMSO only)

Compared with C#CCOCc1ccc(OC)c(OC)c1 [Compound 1-1], C#CCOCc1cccc(OC)c1 [Compound 1-9] is higher in “IN (best inhibition value obtained for a compound)” value: 15% for the first, 20% for the second.

Going from C#CCOCc1ccc(Br)cc1 [Compound 1-2] to C#CCOCc1ccc(Cl)cc1 [Compound 1-15], the “IN (best inhibition value obtained for a compound)” value rises from 48% to 58%.

First: C#CCOCc1ccc(Oc2ccccc2)cc1 [Compound 1-3]
Second: C#CCOCc1ccc(Oc2ccc(F)cc2)cc1 [Compound 1-4]
The “IN (best inhibition value obtained for a compound)” value of the first is lower: 11% for the first, 15% for the second.

Going from C#CCOCc1ccccc1F [Compound 1-5] to C#CCOCc1ccc(Cl)cc1Cl [Compound 1-10], the “IN (best inhibition value obtained for a compound)” value falls from 27% to 14%.

First: C#CCOC(Cn1cncn1)c1ccc(Oc2ccc(Cl)cc2)cc1Cl (stereo not shown) [Compound 1-6]
Second: C#CCOC(Cn1cncn1)c1ccc(Oc2ccc(Cl)cc2)cc1C(F)(F)F (stereo not shown) [Compound 1-7]
The “IN (best inhibition value obtained for a compound)” value of the first is lower: 10% for the first, 11% for the second.

First: C#CCOCc1ccc(OC)cc1 [Compound 1-8]
Second: C#CCOCc1ccc(Oc2ccc(Cl)cc2)cc1 [Compound 1-16]
The “IN (best inhibition value obtained for a compound)” value of the first is higher: 57% for the first, 11% for the second.

Compared with C#CCOC(Cn1cncn1)c1ccc(Br)cc1 (stereo not shown) [Compound 1-12], C#CCOC(Cn1cncn1)c1ccc(F)cc1 (stereo not shown) [Compound 1-13] is lower in “IN (best inhibition value obtained for a compound)” value: 15% for the first, 10% for the second.

First: C#CCOCc1ccc(Cl)cc1C [Compound 1-14]
Second: C#CCOC(CC(n1cncn1)C(C)(C)C)c1ccc(Cl)cc1Cl (stereo not shown) [Compound 1-22]
The “IN (best inhibition value obtained for a compound)” value of the first is higher: 56% for the first, 11% for the second.

C#CCOC(Cn1cncn1)c1ccc(Oc2ccc(Cl)cc2)cc1 (stereo not shown) [Compound 1-18] and C#CCOC(Cn1cncn1)c1cc(OC)c(OC)c(OC)c1 (stereo not shown) [Compound 1-20] are the same in “IN (best inhibition value obtained for a compound)” value: 10% for the first, 10% for the second.

With C#CCOC(c1ccccc1)C(CCCC)n1cncn1 (stereo not shown) [Compound 1-21] the “IN (best inhibition value obtained for a compound)” value was 20%.

same assay, conditions: dose of 10 ppm; same conditions as Example 1.1

With C#Cc1ccccc1 [Phenylacetylene, phenylacetylene, reference compound] the “IN (inhibition value), comparative example” value was 7%.
